Laboratory results as given in paper PMC9243000 (Cell Discovery, 2022).
Like-named read-outs stand apart in the source and are kept apart here. Positions of bridges follow the written chain, without caps; N, C: chain ends. Residues, ends and D or L forms follow the SMILES beside them. Chains are numbered I, II in the order given. No end group written: not given here.

Key:
SARS-CoV-2 (HKU001a) = conditions: for 50% inhibitory concentration IC50: HKU001a, 18 h; for antiviral activity in the low salt condition: low salt (30 mM, PBS/5), plaque reduction assay
[1] = system: spike-ACE2-mediated cell fusion in 293T cells; format: cell-based; conditions: 4H30 40 μM, bafilomycin A1 50 nM, remdesivir 80 μM; 6 h post coculture
[2] = system: fusion between 293T-Spike and Calu-3 cells; format: cell-based
[3] = system: endosomal acidification in VeroE6 cells; assay: Endosomal acidification assay; format: cell-based; conditions: 4H30 25 μg/mL, bafilomycin A1 50 nM, pH-sensitive dye
Experimental: Endosomal acidification was detected with a pH-sensitive dye (pHrodo green dextran, Invitrogen, Cat^# P35365) according to the manufacturer’s instructions as previously described but with slight modification. First, VeroE6 cells were treated with DMEM, 4H30 (25.0 μg/mL), or bafilomycin A1 (50.0 nM) at 4 °C for 15 min. Second, VeroE6 cells were added with 100 μg/mL of pH-sensitive dye and DAPI and then incubated at 4 °C for 15 min. Before taking images, cells were further incubated at 37 °C for 15 min and then cells were washed twice with PBS. Finally, PBS was added to cells and images were taken immediately with a confocal microscope (Carl Zeiss LSM 800, Germany).
Supplementary Fig. S7. 4H30 could inhibit endosomal acidification in VeroE6 cells. VeroE6 cells were treated with pH-sensitive dye (green in low pH endosomes) and the indicated inhibitor 4H30 (25 μg/mL), bafilomycin A1 (BA1, 50 nM) or DMEM. Nuclei were stained as blue. Cell only without treatment was the negative control (Neg). Representative live-cell images were taken by confocal microscope. Experiments were repeated with two independent biological samples. […]

SARS-CoV-2 [4] = conditions: cited from earlier work
[5] = system: SARS-CoV-2 (B.1.617.2, Delta); assay: Post-exposure antiviral assay in hamsters, Delta; format: in vivo; conditions: for syncytia formation in hamster lungs: Delta, compared with mock-treated hamsters; for inhibition of viral replication in hamster lungs (PFU/lung) / lung inflammation: in vivo, hamster
[6] = Cytotoxicity MTT assay, VeroE6; format: cell-based; conditions: VeroE6 cells, 24 h at 37 °C, DMEM with 1% FBS, n = 3, read-out: 50% toxicity concentration (TC50)
Experimental: (§1) Cytotoxicity of peptides was determined by the detection of 50% cytotoxic concentration (CC50) using a tetrazolium-based colorimetric MTT assay. Briefly, cells were seeded in a 96-well cell culture plate at an initial density of 4 × 10^4 cells per well in DMEM supplemented with 10% FBS and incubated overnight. Cell culture media were removed and then DMEM supplemented with various concentrations of peptides and 1% FBS were added to each well. After 24 h incubation at 37 °C, MTT solution (5 mg/mL, 10 μL per well) was added to each well for incubation at 37 °C for 4 h. Then, 100 μL of 10% SDS in 0.01 M HCl was added to each well. After further incubation at room temperature with shaking overnight, the plates were read at OD570 using VictorTM X3 Multilabel Reader (PerkinElmer, USA). Cell culture wells without peptides were used as the experiment control and the medium only served as a blank control.

[7] = Cytotoxicity MTT assay, Calu-3; format: cell-based; conditions: human, Calu-3 cells, 24 h at 37 °C, DMEM with 1% FBS, n = 3, read-out: 50% toxicity concentration (TC50)
Experimental: as §1

SARS-CoV-2 [8] = assay: Viral RNA copies in VeroE6 cell lysate after pretreatment (RT-qPCR); format: cell-based; conditions: virus pretreated by 4H30 (25 μg/mL), DMEM-treated virus 50-fold, n = 4
SARS-CoV-2 [9] = assay: Viral attachment assay at 4 °C (RT-qPCR); format: cell-based
spike-ACE2 binding = spike-ACE2 binding (Severe acute respiratory syndrome coronavirus 2, UniProt P0DTC2); assay: ELISA of spike binding to ACE2; conditions: ACE2 (150 ng) coated on ELISA plate; n = 6
[10] = ELISA binding to heparan sulfate; conditions: HS 300, 75 ng coated on ELISA plate; detection by anti-HBD2; compared with BSA; n = 4
[11] = ELISA binding to chondroitin sulfate; conditions: CS 300, 75 ng coated on ELISA plate; detection by anti-HBD2; compared with BSA; n = 4
SARS-CoV-2 [12] = assay: Viral release assay; format: cell-based
SARS-CoV-2 (B.1.1.63) [13] = assay: Pre-exposure antiviral assay in hamsters; format: in vivo; conditions: compared with mock-treated hamsters
SARS-CoV-2 (B.1.1.63) [14] = assay: Post-exposure antiviral assay in hamsters, B.1.1.63; conditions: hamster, in vivo
SARS-CoV-2 [15] = assay: Plaque assay after 10,000-fold dilution of treated virus; format: cell-based
SARS-CoV-2 B.1.1.63 = conditions: B.1.1.63, 18 h
MERS-CoV = conditions: 18 h
[16] = intranasal, three doses of 0.5 mg/kg within two days; 4 days post-inoculation
[17] = mice; intranasal, three doses of 0.5 mg/kg within two days; compared with the PBS group; three mice in each group

## CC[C@H](C)[C@H](NC(=O)[C@H](C)NC(=O)CN)C(=O)N[C@@H](CS)C(=O)N[C@@H](Cc1c[nH]cn1)C(=O)N1CCC[C@H]1C(=O)N[C@H](C(=O)N[C@@H](Cc1ccccc1)C(=O)N[C@@H](CS)C(=O)N1CCC[C@H]1C(=O)N[C@@H](CCCNC(=N)N)C(=O)N[C@@H](CCCNC(=N)N)C(=O)N[C@@H](Cc1ccc(O)cc1)C(=O)N[C@@H](CCCCN)C(=O)N[C@@H](CCC(N)=O)C(=O)N[C@H](C(=O)NCC(=O)N[C@H](C(=O)N[C@@H](CS)C(=O)NCC(=O)N[C@@H](CC(C)C)C(=O)N1CCC[C@H]1C(=O)NCC(=O)N[C@H](C(=O)N[C@@H](CCCCN)C(=O)N[C@@H](CS)C(=O)N[C@@H](CS)C(=O)N[C@@H](CCCCN)C(=O)N[C@@H](CCCCN)C(=O)N1CCC[C@H]1C(=O)O)[C@@H](C)O)[C@@H](C)O)[C@@H](C)CC)C(C)C [H30] (H-GAICHPVFCPRRYKQIGTCGLPGTKCCKKP-OH; N-terminus and C-terminus assumed)
SARS-CoV-2 (HKU001a)
  50% inhibitory concentration IC50: > 25 µg/mL
  antiviral activity in the low salt condition: more effective in the low salt condition

## CO/C1=C\C(C)=C\[C@@H](C)[C@@H](O)[C@@H](C)C/C(C)=C/C=C/[C@H](OC)[C@@H]([C@@H](C)[C@@H](O)[C@H](C)[C@@]2(O)C[C@@H](O)[C@H](C)[C@@H](C(C)C)O2)OC1=O [bafilomycin A1]
[1]
  inhibition of spike-ACE2-mediated cell fusion, 293T-Spike + 293T-ACE2: inhibition
[2]
  inhibition of cell-cell fusion, 293T-Spike + Calu-3: could not inhibit
[2]; 4H30 125 μg/mL, BA1 50 nM, 6-8 h post-coculture, non-fusion cell size ~10 μm
  cell fusion size, 293T-Spike + Calu-3: > 40 μm
[3]
  inhibition of endosomal acidification in live cells: could inhibit

## CN(C)C(=O)COC(=O)Cc1ccc(OC(=O)c2ccc(NC(=N)N)cc2)cc1 [camostat]
[2]
  inhibition of cell-cell fusion, 293T-Spike + Calu-3: could show the inhibition
SARS-CoV-2 [4]
  inhibition of SARS-CoV-2 in hamsters by camostat alone: not significantly inhibited

## CCC(CC)COC(=O)[C@H](C)N[P@](=O)(OC[C@H]1O[C@@](C#N)(c2ccc3c(N)ncnn23)[C@H](O)[C@@H]1O)Oc1ccccc1 [remdesivir, reference compound]
[1]
  inhibition of spike-ACE2-mediated cell fusion, 293T-Spike + 293T-ACE2: without inhibition
[5]
  syncytia formation in hamster lungs: syncytia could be easily observed
  inhibition of viral replication in hamster lungs (PFU/lung): 33 fold
  lung inflammation: could reduce lung inflammation

## I: GAICHPVFCPRRYKQIGTCGLPGTKCCKKPKK / II: GAICHPVFCPRRYKQIGTCGLPGTKCCKKPK / III: GAICHPVFCPRRYKQIGTCGLPGTKCCKKP / IV: GAICHPVFCPRRYKQIGTCGLPGTKCCKKP (amide I:31-IV:C, I:32-II:C, II:31-III:C; cysteines drawn unpaired) [4H30]
[6]
  CC50 at 24 h: > 400 µg/mL
[7]
  CC50 at 24 h: > 400 µg/mL
SARS-CoV-2 [8]
  viral RNA increase at 6 hpi compared with viral load at 1 hpi: less than threefold
SARS-CoV-2 [9]; cells treated with 12.5 μg/mL, attachment at 4 °C, compared with BSA- or DMEM-treated cells
  SARS-CoV-2 attachment to A549 (ACE2–) and Calu-3 (ACE2+) cells: significantly increased
SARS-CoV-2 [9]; virus pre-mixed with 25 μg/mL for 1 hour, attachment at 4 °C for 1 hour, n = 4
  SARS-CoV-2 attachment to VeroE6 cells: increase
spike-ACE2 binding
  effect on binding between the spike and ACE2: did not directly affect the binding
[10]
  binding to heparan sulfate (HS): effectively bind
[11]
  binding to chondroitin sulfate (CS): effectively bind
[1]
  inhibition of spike-ACE2-mediated cell fusion, 293T-Spike + 293T-ACE2: could inhibit the fusion
[2]; 4H30 125 μg/mL, bafilomycin A1 50 nM, camostat 100 μg/mL, 6-8 h post-coculture
  inhibition of cell-cell fusion, 293T-Spike + Calu-3: could not inhibit
[3]
  inhibition of endosomal acidification in live cells: could inhibit
SARS-CoV-2 [12]
  inhibition of viral release: significantly inhibit viral release
SARS-CoV-2 (B.1.1.63) [13]
  syncytia in bronchial epithelium: reduced
SARS-CoV-2 (B.1.1.63) [14]
  inhibition of SARS-CoV-2 replication in lungs, post-exposure: significantly inhibit
[5]
  syncytia formation in hamster lungs: could reduce the syncytia formation
  inhibition of viral replication in hamster lungs (PFU/lung): 9 fold
  lung inflammation: could reduce lung inflammation
SARS-CoV-2 [15]
  inhibition of infection after dilution of treated virus: significantly inhibit
SARS-CoV-2 (HKU001a)
  50% inhibitory concentration IC50: 0.59 µg/mL
  antiviral activity in the low salt condition: significantly inhibited
SARS-CoV-2 B.1.1.63
  IC50: 0.48 µg/mL
MERS-CoV
  IC50: 1.01 µg/mL
[16]
  pathological and body weight changes in hamsters: did not cause significant pathological and body weight changes
[17]
  lung histopathology and body weight changes for 40 days: no significant histopathological and consistent body weight change
